Test results from the NIST ThermoML archive (doi:10.1021/je034062r).

Test: xn = mol fraction of the nth substance listed
Conditions: for mass density: Liquid; for surface tension liquid-gas: Pendant drop shape

CC(C)=O [acetone] + Cc1ccccc1
Conditions	mass density [kg/m3]	surface tension liquid-gas [mN/m]
283.15 K, x2 = 0	803.2	–
283.15 K, x2 = 0.1	815.1	–
283.15 K, x2 = 0.2002	823.5	–
283.15 K, x2 = 0.3002	832.2	–
283.15 K, x2 = 0.3997	841.2	–
283.15 K, x2 = 0.4973	847.6	–
283.15 K, x2 = 0.6011	854.7	–
283.15 K, x2 = 0.7004	860.8	–
283.15 K, x2 = 0.7998	866.4	–
283.15 K, x2 = 0.8982	871.5	–
287.81 K, x2 = 0	–	23.94
287.81 K, x2 = 0.1	–	24.56
287.81 K, x2 = 0.2002	–	25.24
287.81 K, x2 = 0.3002	–	25.89
287.81 K, x2 = 0.3997	–	26.46
287.81 K, x2 = 0.4973	–	27.1
287.81 K, x2 = 0.6011	–	27.68
287.81 K, x2 = 0.7004	–	28.24
287.81 K, x2 = 0.7998	–	28.48
287.81 K, x2 = 0.8982	–	28.73
288.15 K, x2 = 0	798.2	–
288.15 K, x2 = 0.1	809.8	–
288.15 K, x2 = 0.2002	818.2	–
288.15 K, x2 = 0.3002	826.8	–
288.15 K, x2 = 0.3997	836.1	–
288.15 K, x2 = 0.4973	842.6	–
288.15 K, x2 = 0.6011	849.9	–
288.15 K, x2 = 0.7004	856	–
288.15 K, x2 = 0.7998	861.7	–
288.15 K, x2 = 0.8982	866.9	–
293.15 K, x2 = 0	792.6	–
293.15 K, x2 = 0.1	804.2	–
293.15 K, x2 = 0.2002	812.5	–
293.15 K, x2 = 0.3002	821.4	–
293.15 K, x2 = 0.3997	830.7	–
293.15 K, x2 = 0.4973	837.3	–
293.15 K, x2 = 0.6011	844.6	–
293.15 K, x2 = 0.7004	850.9	–
293.15 K, x2 = 0.7998	856.6	–
293.15 K, x2 = 0.8982	861.9	–
297.82 K, x2 = 0	–	22.78
297.82 K, x2 = 0.1	–	23.28
297.82 K, x2 = 0.2002	–	23.78
297.82 K, x2 = 0.3002	–	24.36
297.82 K, x2 = 0.3997	–	24.93
297.82 K, x2 = 0.4973	–	25.55
297.82 K, x2 = 0.6011	–	26
297.82 K, x2 = 0.7004	–	26.5
297.82 K, x2 = 0.7998	–	27.1
297.82 K, x2 = 0.8982	–	27.33
298.15 K, x2 = 0	787	–
298.15 K, x2 = 0.1	798.8	–
298.15 K, x2 = 0.2002	807.1	–
298.15 K, x2 = 0.3002	816.1	–
298.15 K, x2 = 0.3997	825.6	–
298.15 K, x2 = 0.4973	832.3	–
298.15 K, x2 = 0.6011	839.7	–
298.15 K, x2 = 0.7004	846.1	–
298.15 K, x2 = 0.7998	851.9	–
298.15 K, x2 = 0.8982	857.3	–
303.15 K, x2 = 0	781.2	–
303.15 K, x2 = 0.1	793.3	–
303.15 K, x2 = 0.2002	801.6	–
303.15 K, x2 = 0.3002	810.8	–
303.15 K, x2 = 0.3997	820.4	–
303.15 K, x2 = 0.4973	827.2	–
303.15 K, x2 = 0.6011	834.7	–
303.15 K, x2 = 0.7004	841.3	–
303.15 K, x2 = 0.7998	847.2	–
303.15 K, x2 = 0.8982	852.6	–
307.86 K, x2 = 0	–	21.59
307.86 K, x2 = 0.1	–	22.08
307.86 K, x2 = 0.2002	–	22.58
307.86 K, x2 = 0.3002	–	23.1
307.86 K, x2 = 0.3997	–	23.77
307.86 K, x2 = 0.4973	–	24.4
307.86 K, x2 = 0.6011	–	25
307.86 K, x2 = 0.7004	–	25.4
307.86 K, x2 = 0.7998	–	26
307.86 K, x2 = 0.8982	–	26.24
308.15 K, x2 = 0	775.4	–
308.15 K, x2 = 0.1	787.7	–
308.15 K, x2 = 0.3002	805.5	–
308.15 K, x2 = 0.3997	815.1	–
308.15 K, x2 = 0.4973	822.1	–
308.15 K, x2 = 0.6011	829.7	–
308.15 K, x2 = 0.7004	836.4	–
308.15 K, x2 = 0.7998	842.4	–
308.15 K, x2 = 0.8982	847.9	–
313.15 K, x2 = 0	769.6	–
313.15 K, x2 = 0.1	782	–
313.15 K, x2 = 0.2002	790.4	–
313.15 K, x2 = 0.3002	800.1	–
313.15 K, x2 = 0.3997	809.7	–
313.15 K, x2 = 0.4973	816.9	–
313.15 K, x2 = 0.6011	824.7	–
313.15 K, x2 = 0.7004	831.4	–
313.15 K, x2 = 0.7998	837.6	–
313.15 K, x2 = 0.8982	843.2	–
317.86 K, x2 = 0	–	20.33
317.86 K, x2 = 0.1	–	20.9
317.86 K, x2 = 0.2002	–	21.44
317.86 K, x2 = 0.3002	–	22.18
317.86 K, x2 = 0.3997	–	22.67
317.86 K, x2 = 0.4973	–	23.25
317.86 K, x2 = 0.6011	–	24.11
317.86 K, x2 = 0.7004	–	24.4
317.86 K, x2 = 0.7998	–	24.99
317.86 K, x2 = 0.8982	–	25.2
318.15 K, x2 = 0	762.5	–
318.15 K, x2 = 0.1	776.2	–
318.15 K, x2 = 0.2002	784.6	–
318.15 K, x2 = 0.3002	794.6	–
318.15 K, x2 = 0.3997	804.2	–
318.15 K, x2 = 0.4973	811.6	–
318.15 K, x2 = 0.6011	819.5	–
318.15 K, x2 = 0.7004	826.4	–
318.15 K, x2 = 0.7998	832.7	–
318.15 K, x2 = 0.8982	838.4	–
323.15 K, x2 = 0	756.2	–
323.15 K, x2 = 0.1	770.2	–
323.15 K, x2 = 0.2002	778.9	–
323.15 K, x2 = 0.3002	789.1	–
323.15 K, x2 = 0.3997	798.6	–
323.15 K, x2 = 0.4973	806.3	–
323.15 K, x2 = 0.6011	814.4	–
323.15 K, x2 = 0.7998	827.7	–
323.15 K, x2 = 0.8982	833.6	–
327.88 K, x2 = 0	–	19.01
327.88 K, x2 = 0.1	–	19.74
327.88 K, x2 = 0.2002	–	20.32
327.88 K, x2 = 0.3002	–	21.07
327.88 K, x2 = 0.3997	–	21.8
327.88 K, x2 = 0.4973	–	22.2
327.88 K, x2 = 0.6011	–	22.97
327.88 K, x2 = 0.7004	–	23.56
327.88 K, x2 = 0.7998	–	23.83
327.88 K, x2 = 0.8982	–	24.14
328.15 K, x2 = 0	749.3	–
328.15 K, x2 = 0.1	764	–
328.15 K, x2 = 0.2002	773.2	–
328.15 K, x2 = 0.3002	783.5	–
328.15 K, x2 = 0.3997	792.9	–
328.15 K, x2 = 0.4973	801	–
328.15 K, x2 = 0.6011	809.2	–
328.15 K, x2 = 0.7004	816.3	–
328.15 K, x2 = 0.7998	822.8	–
328.15 K, x2 = 0.8982	828.7	–
333.15 K, x2 = 0	742.3	–
333.15 K, x2 = 0.1	757.3	–
333.15 K, x2 = 0.2002	767.5	–
333.15 K, x2 = 0.3002	778.1	–
333.15 K, x2 = 0.3997	787.3	–
333.15 K, x2 = 0.4973	795.6	–
333.15 K, x2 = 0.6011	803.9	–
333.15 K, x2 = 0.7004	811.2	–
333.15 K, x2 = 0.7998	817.8	–
333.15 K, x2 = 0.8982	823.8	–
